Experimental data published in patent publication US7361279B2, “Removing metals from solution using metal binding compounds and sorbents therefor” (priority 2002, dated 2008).
Where “and” joins values, the source holds several entries; their conditions need not be identical. Equal values may be shown once.

Assays:
[1] = Differential pulse polarography, stability constants (DeFord-Hume, Lingane), Pb(II); format: binding
From the text: (§1) Such an approach was applied to estimate the strength of metal-benzotriazole interactions in acidic solutions. The current that flows during a single life time of a dropping mercury electrode (DME) is held at a given potential in a polarograph and is described by the Ilkovic Equation: Id=708nDo^1/2C0*m^2/3t^1/6 (2)
(§2) In their classic report, Deford and Hume (1951) defined a series of functions, where the change in reduction potential of a target ion, measured with a polarograph, can be directely related to its complexation stability by the progressive addition of a known ligand.
(§3) Stability constants are obtained as follows where F0(x)=ΣβnCL^n=β0β1CL+β2CL^2+ . . . +βnCL^n (7)
(§4) In order to obtain β1, . . . , βn, a widely-accepted graphical extrapolation method derived by Leden (1941) was applied. Sequential plots of equation (7) (Fn(X) vs. C) yielded a family of curves, through which coordination chemistry between metals and benzotriazoles was determined.
(§5) The maximum coordination number was also independently determined using the Lingane method reported by Crow (1969) with a plot of ΔE1/2 Vs. Log Cx relationship, using the Lingane equation: […]
(§6) βmxj (the overall stability constant), and j (maximum number of ligands coordinated with a metal through a reversible series of complexing interactions), were determined for Cu(II), Pb(II) and Zn(II) interactions with benzotriazoles. The present application reports the development and use of polarographic methods for quantification of benzotriazole complexes to study their potential for immobilizing metals on activated carbon surfaces.
(§7) Polarographic and voltammetric measurements were performed with a CV-50W Voltametric analyzer fitted with a controlled growth mercury electrode; this multimode electrode was used in a static mercury drop electrode (SMDE) mode. The mercury electrode was multiplexed using BAS commercial software (Bioanalytical Systems, Inc., Lafayette, Ind., USA) a platinum auxiliary electrode and an Ag/AgCl (3 M KCl) reference electrode. All potentials were normalized to the Ag/AgCl electrode. A system scan rate of 5 mV s^−1 was used with a drop time of 1 sec. For DPP, the pulse amplitude was 100 mV with a sample width of 17 msec. A repeatable drop size was produced using a borosilicate capillary tube. The solenoid activation setting was 100 ms for all runs.
(§8) For the stability constant calculations, a 15 ml supporting electrolyte solution was pipetted into the voltammetric cell and the metal salt addition was adjusted to yield a final concentration of approximately 10^−5 M. The ligand (5-methybenzotriazole) was then added in increasing concentration from 0 to 1×10^−2 M. Polarograms were constructed, and the shift in the half wave potential was recorded after each ligand addition. All DPP measurements were made in triplicate.

[2] = Differential pulse polarography, stability constants (DeFord-Hume, Lingane), Cu(II); format: binding
From the text: as §1, §2, §3, §4, §5, §6, §7, §8

[3] = Differential pulse polarography, Zn(II) complexation; format: binding; settings: DPP, increasing MeBT
From the text: as §1, §2, §6
Polarographic and voltammetric measurements were performed with a CV-50W Voltametric analyzer fitted with a controlled growth mercury electrode; this multimode electrode was used in a static mercury drop electrode (SMDE) mode. […]

[4] = Batch microcosm immobilization of lead on Calgon MRX-P GAC
Procedure: (§9) Experiments were executed to bracket a range of MeBT and carbon concentrations near the sorptive capacity of calgon MRX, as judged by Freundlich isotherm modeling (c.a. 49 mg/g). Lead, copper, and zinc were chosen as models to study the complexation behavior and sorptive interactions when MeBT is bound to different transition metals. Different ratios of ligand (MeBT) and metal were chosen based on the coordination stichiometry of MeBT with each metal. The ionic strength was held constant at 0.0 1M, and H2SO4 and HNO3 were used as background electrolytes. Lead, copper and zinc concentrations of 10 mg/L and carbon concentrations of 5 g/L were employed for batch microcosm assays.
(§10) Microcosms used for benzotriazole-metal immobilization experiments on GAC. Microcosms consisted of 250 ml Erlenmeyer flasks containing 75 mls of test solution with and without activated carbon. 75 milliliter aliquots of MeBT solution containing known GAC masses were placed in 250 ml Erlenmeyer flask. The samples were allowed to equilibrate on a shaker table at 15° C. for no more than 24 hours. Following equilibration, the samples were centrifuged and the supernatant was analyzed for both metal and 5-MeBT content. Metal-ligand molar ratios of 1:0, 1:2, 1:10, and 1:30 were employed. Identical experiments were conducted for each metal in the absence of GAC for the same metal: ligand ratios to determine any possible metal removal effects associated with precipitation. The resulting aqueous metal concentrations were measured by DPP and confirmed by inductive coupled plasma/atomic emission spectroscopy (ARL 3410 ICP/AES) in an EPA certified laboratory in the Geology department at University of Colorado. 5-MeBT was measured by both DPP and HPLC methods.

[5] = Batch microcosm immobilization of copper on Calgon MRX-P GAC
Procedure: as §9, §10

[6] = Batch microcosm immobilization of zinc on Calgon MRX-P GAC; settings: pH 3, ligand to metal ratio 30:1, carbon 5 g/L
Procedure: as §9
as §10, with “The samples were allowed to equilibrate on a shaker table at 15° C. for no more than 24 hours.” left out, “Metal-ligand molar ratios of 1:0, 1:2, 1:10, and 1:30 were employed. Identical experiments were conducted for each metal in the absence of GAC for the same metal: ligand ratios to determine any possible metal removal effects associated with precipitation.” left out

[7] = Removal of benzotriazoles from solution by granular activated carbon; format: physicochemical; settings: for soluble 5-MeBT content after exposure to GAC (HPLC): after 24 hours
Procedure: A spectra-Physics high performance liquid chromatograph (HPLC) fitted with a UV detector (λ=254 nm) was used. 5-MeBT analysis was performed isocratically using two Zorbax Rx-C8 4.6×250 mm columns in series (MacMod Analytical, Inc., Chadds Ford, Pa., USA). The eluent consisted of a phosphate buffer mixed in a 70:30 ratio with HPLC grade acetylnitrile at a flow rate of 1.5 ml/minute with a sample injection volume of 200 μl. All samples were centrifuged at 10,000×g for 5 minutes prior to analysis.
Using simple time-series analysis of soluble methylbenzotriazole, the minimum time required for complete sorption was determined. Each experiment reached equilibrium before 48 hours, using a criteria of no more than 4% change in aqueous concentration during the observation period. Mass balances were used to determine the equilibrium portioning of MeBT in the microcosms system. Aqueous concentration data was used to calculate the amount of MeBT associated with GAC by differences. The equilibrium partioning data were then inverted and log-transformed, and tested against widely-accepted sorption models for “best-fit”.
A spectra-Physics high performance liquid chromatography (HPLC) with UV-Vis Detector (λ=254 nm) was used. Methylbenzotriazole analysis was performed isocratically using two Zorbax Rx-C8 4.6×250 mm columns in series (MacMod Analytical, Inc., Chadds Ford, Pa., USA). The eluent consisted of a phosphate buffer mixed in a 70:30 ratio with HPLC grade acetylnitrile at a flow rate of 1.5 ml/minute with a sample injection volume of 200 μl. All samples were centrifuged at 10,000×g for 5 minutes prior to analysis.
as §10

[8] = Desorption of MeBT from GAC surfaces; format: physicochemical; settings: 30 day period, metal- and benzotriazole-free solutions, pH 2-5, varying ionic strength
Procedure: After sorption, GAC was removed, washed with water, and then transferred to a clean electrolyte solution at different pH (pH 2-4) to investigate the stability of the metal: 5-MeBT complexes once immobilized on activated carbon. After 24 hours of equilibration and at time intervals 0, 7, and 30 days, 5 mls of each sample was centrifuged and analyzed for both metal and 5-MeBT content using both ICP/EAS and HPLC.
The potential for the desorption of MeBT from GAC surfaces was monitored over a 30 day period.

[9] = cited from earlier work
[10] = Pb(II) 3 × 10^−5 M, 5-MeBT 0-7 × 10^−3 M
[11] = [Pb(II)]=3×10^−5M, pH=3, T=25° C.
[12] = Cu(II) 5 × 10^−5 M, 5-MeBT 0-3 × 10^−3 M
[13] = [Cu(II)]=5×10^−5M, pH=2.5, T=25° C.

With Cc1ccc2[nH]nnc2c1 [5-MeBT, 5-methylbenzotriazole] the “DeFord-Hume method Log β1” value [1, 10] was 3.3, the “Lingane method Log βn” value [1, 10] was 3.8 and the “Maximum coordination number (ligand: metal ratio)” value [1, 10] was 1. For the same compound, the “β1 from intercept of F1(X) vs. [MeBT]” value [1, 11] was ~1.8×10^3, the “β1 from slope of Fo(X) vs. [MeBT]” value [1, 11] was ~2.2×10^3 and the “β (copper complexing agent)” value [2] was ~10^15. The “DeFord-Hume method Log β1” value [2, 12] was 12.8, the “DeFord-Hume method Log β2” value [2, 12] was 15.8 and the “Lingane method Log βn” value [2, 12] was 15.8. For the same compound, the “Maximum coordination number (ligand: metal ratio)” value [2, 12] was 2, the “β1 (first complex stability) from intercept of F1(X)” value [2, 13] was ~6×10^12 and the “β2 (overall stability constant) from slope of F1(X)” value [2, 13] was ~7×10^15. The “β2 from intercept of F2(X) vs. [5-MeBT]” value [2, 13] was 7×10^15, the “potential shift on addition of MeBT to zinc-containing solutions” value [3] was “no potential shifts” and the “potential shift on addition of MeBT to zinc-containing solutions” value ([3]; listed as methybenzotriazole) was “no significant potential shifts”. For the same compound, the “share of lead sequestered on GAC associated with an MeBT precipitate” value [4] was “approximately 25%”, the “share of lead sequestered on GAC associated with soluble MeBT complex” value [4] was about 75% and the “Pb(II) removal in the absence of GAC (precipitation)” value (from here on “Pb(II) removal in the absence of GAC”) ([4]; pH 2, MeBT to Pb(II) molar ratio 2) was “approximately 2.5%”. For the same compound, the “Pb(II) removal in the absence of GAC” value ([4]; pH 2, MeBT to Pb(II) molar ratio 10) was about 6%, the “Pb(II) removal in the absence of GAC” value ([4]; pH 2, MeBT to Pb(II) molar ratio 30) was about 12% and the “precipitation-associated Pb(II) removal” value ([4]; pH 3, absence of GAC) was “about 20%”. The “Pb(II) removal efficiency, maximum” value ([4]; pH 3, ligand to metal ratio approximately 30:1, carbon 5 g/L) was 82%, the “share of copper sequestered on GAC associated with an MeBT precipitate” value ([5]; pH 2) was “almost none” and the “Cu(II) removal efficiency, maximum” value ([5]; pH 2, ligand to metal ratio 30:1, carbon 5 g/L) was 13%. For the same compound, the “share of copper removal associated with an MeBT precipitate” value ([5]; pH 3) was “approximately 18%”, the “Cu(II) removal” value ([5]; pH 3, MeBT to Cu(II) molar ratios of 2, 10 and 30) was 32-35% and the “share of copper removal associated with an MeBT precipitate” value ([5]; pH 4) was about 40%. For the same compound, the “Zn(II) removal efficiency, maximum” value [6] was 9%, the “time to sorption equilibrium” value ([7]; 1% GAC w/vol, 10-2000 mg/L MeBT, no more than 4% change criterion) was under 48 h and the “affinity for granular activated carbon compared with benzene” value ([7]; Calgon MRX 10×30 mesh, pH 2 to 5) was “approximately the same as that observed for benzene”. The “soluble 5-MeBT content after exposure to GAC (HPLC)” value (“soluble 5-MeBT content” for short) ([7]; copper microcosms) was “less than 0.25 mg/L”, the “soluble 5-MeBT content” value ([7]; lead microcosms) was “less than 0.25 mg/L” and the “soluble 5-MeBT content” value ([7]; zinc microcosms) was “less than 0.25 mg/L”. For the same compound, the “desorption of 5-MeBT from saturated Calgon MRX-P” value [8] was “did not liberate measurable amounts”, the “first pKa (dissociation)” value [9] was ~2 and 2 and the “second pKa (dissociation)” value [9] was about 9. For the same compound, the pKa ([9]; weak organic acid) was “approximately 8.8”.
